This experiment has as its target memapsin 2 (Homo sapiens, UniProt P56817). Put plainly: Inhibition of memapsin 2 beta-secretase activity toward fluorogenic substrate FS-2. The experiment is classed as biochemical. Particulars: memapsin 2, pH 4, 37° C., 20 minutes pre-incubation, substrate FS-2; read-out: M2Ki. On the procedure:
Potency of compounds were determined by measurement of their inhibition of memapsin 2 activity toward a fluorescent substrate. Kinetic inhibition experiments were performed using the procedure as described in Ermolieff, et al. (Biochemistry 39:12450-12456 (2000), the teachings of which are incorporated hereby in their entirety). Briefly, assays were performed at pH 4, 37° C., by pre-incubation of memapsin 2 enzyme with compound for 20 minutes. Activity measurements were initiated by addition of a fluorogenic substrate FS-2 (Bachem Americas, Torrance, Calif.) MCA-SEVNLDAEFK-DNP (SEQ ID NO.: 2). The substrate was derived from 10 amino acids of the human amyloid precursor protein (APP), with the Swedish variant amino acids at the beta-secretase cleavage site. The terminal amino acid was modified from arginine to lysine to facilitate derivatization with a functional group for detection by autofluorescence. The amino acid sequence of the “core” peptide of the substrate is SEVNLDAEFK (SEQ ID NO.: 3). The amino terminus was derivatized with (7-methoxycoumarin-4-yl)acetyl (MCA), and the epsilon amine of the lysine side chain of the terminal residue (K in sequence SEVNLDAEFK (SEQ ID NO.: 4)) was derivatized with 2,4-dinitrophenyl (DNP).
memapsin 2, sequence (P56817 46-501): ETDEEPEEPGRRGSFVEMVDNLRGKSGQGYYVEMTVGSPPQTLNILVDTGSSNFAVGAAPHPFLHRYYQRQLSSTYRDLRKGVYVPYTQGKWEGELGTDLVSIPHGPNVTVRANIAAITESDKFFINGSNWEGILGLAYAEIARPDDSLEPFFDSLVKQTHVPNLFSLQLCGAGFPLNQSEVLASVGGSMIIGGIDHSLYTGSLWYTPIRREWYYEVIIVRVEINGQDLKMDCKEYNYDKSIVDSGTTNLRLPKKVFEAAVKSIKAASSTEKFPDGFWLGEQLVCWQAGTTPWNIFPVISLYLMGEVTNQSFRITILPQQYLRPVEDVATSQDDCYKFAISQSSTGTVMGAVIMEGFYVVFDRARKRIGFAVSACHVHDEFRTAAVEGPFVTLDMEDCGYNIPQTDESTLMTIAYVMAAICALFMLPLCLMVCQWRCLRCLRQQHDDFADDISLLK
On to `Cc1csc([C@H]2CCCN2C(=O)c2cccc(C(=O)N[C@@H](Cc3ccccc3)[C@H](O)CNC3CC3)c2)n1` [Compound 19, N-((2S,3R)-4-(cyclopropylamino)-3-hydroxy-1-phenylbutan-2-yl)-3-((R)-2-(4-methylthiazol-2-yl)pyrrolidine-1-carbonyl)benzamide], for which the Ki is greater than 201 nM.
Under `COc1cccc(CNC[C@@H](O)[C@H](Cc2ccccc2)NC(=O)c2cccc(C(=O)N3C[C@H](OC)C[C@@H]3c3nc(C)cs3)c2)c1` [Compound 7, N-((2S,3R)-3-hydroxy-4-(3-methoxybenzylamino)-1-phenylbutan-2-yl)-3-((2R,4R)-4-methoxy-2-(4-methylthiazol-2-yl)pyrrolidine-1-carbonyl)benzamide] stands greater than 201 nM.
Regarding `Cc1csc(CNC[C@@H](O)[C@H](Cc2ccccc2)NC(=O)c2cccc(C(=O)N3CCC[C@@H]3c3nc(C)cs3)c2)n1` [Compound 67, N-((2S,3R)-3-hydroxy-4-((4-methylthiazol-2-yl)methylamino)-1-phenylbutan-2-yl)-3-((R)-2-(4-methylthiazol-2-yl)pyrrolidine-1-carbonyl)benzamide], the Ki was greater than 201 nM.
Consider `CCn1cc(CNC[C@@H](O)[C@H](Cc2ccccc2)NC(=O)c2cccc(C(=O)N3CCC[C@@H]3c3nc(C)co3)c2)cn1` [Compound 109, N-((2S,3R)-4-((1-ethyl-1H-pyrazol-4-yl)methylamino)-3-hydroxy-1-phenylbutan-2-yl)-3-((R)-2-(4-methyloxazol-2-yl)pyrrolidine-1-carbonyl)benzamide], for which the Ki fell in the range of 101 to 200 nM.
Regarding `CCn1cc(CNC[C@@H](O)[C@H](Cc2ccccc2)NC(=O)c2cc(C)cc(C(=O)N3CCC[C@@H]3c3nc(C)co3)c2)cn1` [Compound 110, N-((2S,3R)-4-((1-ethyl-1H-pyrazol-4-yl)methylamino)-3-hydroxy-1-phenylbutan-2-yl)-3-methyl-5-((R)-2-(4-methyloxazol-2-yl)pyrrolidine-1-carbonyl)benzamide], the Ki was less than 100 nM.
As to `COc1cccc(CNC[C@@H](O)[C@H](Cc2ccccc2)NC(=O)c2cccc(C(=O)N3CCC[C@H]3c3nc(C)cs3)c2)c1` [Compound 4, N-((2S,3R)-3-hydroxy-4-(3-methoxybenzylamino)-1-phenylbutan-2-yl)-3-((S)-2-(4-methylthiazol-2-yl)pyrrolidine-1-carbonyl)benzamide], the Ki was greater than 201 nM.
Under `Cc1csc([C@H]2CCCN2C(=O)c2cccc(C(=O)N[C@@H](Cc3ccccc3)[C@H](O)CNCc3cc(C(C)C)no3)c2)n1` [Compound 99, N-((2S,3R)-3-hydroxy-4-((3-isopropylisoxazol-5-yl)methylamino)-1-phenylbutan-2-yl)-3-((R)-2-(4-methylthiazol-2-yl)pyrrolidine-1-carbonyl)benzamide] stands less than 100 nM.
The result for `Cc1csc([C@H]2CCCN2C(=O)c2cc(C(=O)N[C@@H](Cc3ccccc3)[C@H](O)CNCc3cncc(C(C)(C)F)c3)cc(C(F)F)c2)n1` [Compound 58, 3-(difluoromethyl)-N-((2S,3R)-4-((5-(2-fluoropropan-2-yl)pyridin-3-yl)methylamino)-3-hydroxy-1-phenylbutan-2-yl)-5-((R)-2-(4-methylthiazol-2-yl)pyrrolidine-1-carbonyl)benzamide] reads less than 100 nM.
`Cc1csc([C@H]2CCCN2C(=O)c2cc(C(=O)N[C@@H](Cc3ccccc3)[C@H](O)CNCc3cccc(C(F)(F)F)c3)cc(N(C)C)n2)n1` [Compound 98, 2-(dimethylamino)-N-((2S,3R)-3-hydroxy-1-phenyl-4-(3-(trifluoromethyl)benzylamino)butan-2-yl)-6-((R)-2-(4-methylthiazol-2-yl)pyrrolidine-1-carbonyl)isonicotinamide]: the Ki was less than 100 nM.

The record behind these values is patent US8299267B2, “(3-hydroxy-4-amino-butan-2-yl) -3- (2-thiazol-2-yl-pyrrolidine-1-carbonyl) benzamide derivatives and related compounds as beta-secretase inhibitors for treating” (CoMentis, Inc., priority 2007, dated 2012).
